Measurements: paper PMC4448943 (Neurotoxicology, 2014)
Where two headings read alike, the source gives them in different places.

Columns and labels:
[1] = test system: rats; settings: rat, in vivo, cited from earlier work
[2] = target: T1, hippocampal FAAH (Rattus norvegicus, UniProt P97612); settings: four hours after dosing, PO 0.3 and 0.6 mg/kg sc, CPO 6 and 12 mg/kg sc
T1 sequence (P97612 1-579): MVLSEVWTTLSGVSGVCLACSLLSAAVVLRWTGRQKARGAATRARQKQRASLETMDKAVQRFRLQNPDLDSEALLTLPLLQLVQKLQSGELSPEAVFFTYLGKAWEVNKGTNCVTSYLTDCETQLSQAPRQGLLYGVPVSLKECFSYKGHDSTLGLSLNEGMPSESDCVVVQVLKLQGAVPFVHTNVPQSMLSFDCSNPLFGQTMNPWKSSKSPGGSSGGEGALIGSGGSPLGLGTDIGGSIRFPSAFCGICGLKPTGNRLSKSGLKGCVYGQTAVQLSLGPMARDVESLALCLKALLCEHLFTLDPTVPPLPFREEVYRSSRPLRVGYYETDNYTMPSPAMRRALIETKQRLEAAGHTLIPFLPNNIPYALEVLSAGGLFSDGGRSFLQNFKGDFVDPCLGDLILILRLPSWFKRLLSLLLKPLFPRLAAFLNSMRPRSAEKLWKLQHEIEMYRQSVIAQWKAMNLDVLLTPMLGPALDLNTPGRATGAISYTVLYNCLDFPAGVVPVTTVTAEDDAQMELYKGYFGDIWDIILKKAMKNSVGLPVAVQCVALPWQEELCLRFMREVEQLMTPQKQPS

[3] = target: T2, hippocampal AChE (Rattus norvegicus, UniProt P37136); type: in vivo
T2 sequence (P37136 32-614): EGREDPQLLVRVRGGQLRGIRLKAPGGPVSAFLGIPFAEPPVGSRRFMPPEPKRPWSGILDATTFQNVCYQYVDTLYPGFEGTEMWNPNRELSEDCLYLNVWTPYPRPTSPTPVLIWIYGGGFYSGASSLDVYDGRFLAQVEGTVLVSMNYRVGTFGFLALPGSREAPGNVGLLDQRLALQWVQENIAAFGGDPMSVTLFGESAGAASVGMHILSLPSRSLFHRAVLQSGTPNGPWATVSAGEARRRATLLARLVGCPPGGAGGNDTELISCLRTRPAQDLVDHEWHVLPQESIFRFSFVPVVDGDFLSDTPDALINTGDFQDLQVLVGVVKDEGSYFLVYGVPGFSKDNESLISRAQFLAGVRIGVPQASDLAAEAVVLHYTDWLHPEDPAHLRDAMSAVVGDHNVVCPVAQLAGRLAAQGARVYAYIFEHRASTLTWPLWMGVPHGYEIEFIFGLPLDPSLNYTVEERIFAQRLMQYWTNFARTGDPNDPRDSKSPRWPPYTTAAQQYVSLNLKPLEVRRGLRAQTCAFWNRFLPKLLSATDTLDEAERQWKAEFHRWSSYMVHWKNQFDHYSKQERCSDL

[4] = target: T3, rat hippocampal MAGL (Rattus norvegicus, UniProt Q8R431); experiment: In vitro inhibition of hippocampal MAGL activity; type: biochemical; settings: CPO more potent than PO
T3 sequence (Q8R431 1-303): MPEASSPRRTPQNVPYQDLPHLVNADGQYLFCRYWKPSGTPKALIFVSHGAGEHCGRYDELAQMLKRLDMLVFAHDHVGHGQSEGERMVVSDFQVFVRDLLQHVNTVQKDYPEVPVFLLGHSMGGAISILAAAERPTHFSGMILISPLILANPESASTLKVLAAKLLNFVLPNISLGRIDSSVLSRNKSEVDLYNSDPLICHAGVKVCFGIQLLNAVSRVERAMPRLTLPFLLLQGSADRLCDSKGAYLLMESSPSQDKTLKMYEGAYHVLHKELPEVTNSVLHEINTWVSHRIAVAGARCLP

[5] = test system: Adult male Sprague-Dawley rats; settings: rat, in vivo
[6] = target: T4, rat hippocampal FAAH (Rattus norvegicus, UniProt P97612); experiment: In vitro inhibition of hippocampal FAAH activity; type: biochemical
T4 sequence (P97612 1-579): T1 sequence (P97612 1-579)

[7] = test system: Adult male Sprague-Dawley rats; settings: rat, in vivo; remark: listed apart in the source
[8] = target: T5, rat hippocampal AChE (Rattus norvegicus, UniProt P37136); type: biochemical
T5 sequence (P37136 32-614): T2 sequence (P37136 32-614)

[9] = target: T6, hippocampal MAGL (Rattus norvegicus, UniProt Q8R431); type: in vivo; settings: four hours after dosing; PO 0.3 and 0.6 mg/kg sc, CPO 6 and 12 mg/kg sc
T6 sequence (Q8R431 1-303): T3 sequence (Q8R431 1-303)

For `Cc1c(C(=O)NN2CCCCC2)nn(-c2ccc(Cl)cc2Cl)c1-c1ccc(I)cc1` [AM251, N-(piperidin-1-yl)-5-(4-iodophenyl)-1-(2,4-dichlorophenyl)-4-methyl-1H-pyrazole-3-carboxamide], the “Influence on responses to chlorpyrifos” value [1] is given as “no influence”.
For `Cc1c(C(=O)c2cccc3ccccc23)c2cccc3c2n1[C@H](CN1CCOCC1)CO3` [WIN 55,212-2], the “Effect on signs of cholinergic toxicity following acute PO exposure” value ([1]; po) is listed as “reduced”.
In the case of `CCOP(=O)(OCC)Oc1nc(Cl)c(Cl)cc1Cl` [chlorpyrifos oxon], the “In vivo inhibition of hippocampal FAAH activity” value [2] is reported as 90–95%, the “In vivo inhibition of hippocampal FAAH activity” value ([2]; listed as CPO) is reported as 80–90% and the “In vivo inhibition of hippocampal AChE activity” value ([3]; rat, in vivo) is reported as 80–90%. For the same compound, the “In vitro potency at inhibiting MAGL relative to PO” value [4] was “≈ 19 fold”, the “Involuntary movements (tremors)” value [5] was “dose-related” and the “SLUD signs (primarily defecation and lacrimation)” value [5] was “slightly increased”. The IC50 [6] was 71 nM, the “In vitro potency at inhibiting FAAH relative to PO” value ([6]; CPO more potent than PO) was “≈ 8 fold” and the Lethality ([7]; male, Sprague-Dawley) was 0/6. The Lethality [7] was “no lethality”, the “In vitro potency at inhibiting AChE relative to PO” value [8] was “≈ 2 fold” and the “In vivo inhibition of hippocampal MAGL activity” value [9] was 37–50%.
For `CCOP(=O)(OCC)Oc1ccc([N+](=O)[O-])cc1` [paraoxon, Paraoxon], the “In vivo inhibition of hippocampal FAAH activity” value [2] was 90–95%, the “In vivo inhibition of hippocampal FAAH activity” value ([2]; listed as PO) was 80–90% and the “In vivo inhibition of hippocampal AChE activity” value ([3]; four hours after dosing, PO 0.3 and 0.6 mg/kg sc, CPO 6 and 12 mg/kg sc) was 80–90%. The “Involuntary movements (tremors)” value [5] was “dose-related”, the “SLUD signs (primarily defecation and lacrimation)” value [5] was “slightly increased” and the IC50 [6] was 562 nM. For the same compound, the Lethality ([7]; male, Sprague-Dawley, 0.6 mg/kg) was 2/14 and the “In vivo inhibition of hippocampal MAGL activity” value [9] was “neither dosage of paraoxon affected MAGL activity”.
